ChEMBL document CHEMBL1287717, “Design and synthesis of macrocyclic indoles targeting blood coagulation cascade Factor XIa” (Bioorg Med Chem Lett, 2010)
Active and inactive are the calls of the source. The calls are words filed in the database; no cut-off is given here.

What was measured:
Coagulation factor XI [1] = biological target: T1, Coagulation factor XI (Homo sapiens, UniProt P03951); test: Inhibition of factor 11a
Prothrombin [2] = biological target: T2, Prothrombin (Homo sapiens, UniProt P00734); test: Inhibition of factor 2a at 300 uM
[3] = biological target: T3, Vitamin K-dependent protein C (Homo sapiens, UniProt P04070); test: Inhibition of activated protein C
T3 sequence (P04070 43-197 limits assumed): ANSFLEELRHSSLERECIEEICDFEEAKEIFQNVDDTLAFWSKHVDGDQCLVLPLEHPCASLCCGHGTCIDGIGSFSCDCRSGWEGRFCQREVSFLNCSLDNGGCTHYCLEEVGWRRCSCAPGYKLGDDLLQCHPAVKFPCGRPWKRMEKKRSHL
T3 sequence (P04070 212-461 limits assumed): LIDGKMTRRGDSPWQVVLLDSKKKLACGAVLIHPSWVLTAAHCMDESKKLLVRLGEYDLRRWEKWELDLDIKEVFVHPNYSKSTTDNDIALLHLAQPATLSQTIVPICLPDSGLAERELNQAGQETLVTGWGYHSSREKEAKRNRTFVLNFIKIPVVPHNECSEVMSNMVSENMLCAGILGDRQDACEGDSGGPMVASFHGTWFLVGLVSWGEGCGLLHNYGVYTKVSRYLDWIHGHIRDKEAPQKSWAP

Trypsin = Trypsin (Homo sapiens, UniProt P07477+P07478+P35030); test: Inhibition of human trypsin; format: protein assay
[4] = biological target: T3, Vitamin K-dependent protein C; test: Inhibition of activated protein C at 300 uM
Prothrombin [5] = biological target: T2, Prothrombin; test: Inhibition of factor 2a
Coagulation factor XI [6] = biological target: T1, Coagulation factor XI; test: Inhibition of factor 11a at 300 uM
[7] = biological target: Coagulation factor IX (Homo sapiens) (UniProt P00740); test: Inhibition of factor 9a at 300 uM
Chain of Coagulation factor IX (Homo sapiens) (P00740 47-191 limits assumed): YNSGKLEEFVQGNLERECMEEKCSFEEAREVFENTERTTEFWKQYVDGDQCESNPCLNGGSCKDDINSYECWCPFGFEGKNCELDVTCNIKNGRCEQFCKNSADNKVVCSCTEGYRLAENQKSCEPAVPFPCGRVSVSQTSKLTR
Chain of Coagulation factor IX (Homo sapiens) (P00740 227-461 limits assumed): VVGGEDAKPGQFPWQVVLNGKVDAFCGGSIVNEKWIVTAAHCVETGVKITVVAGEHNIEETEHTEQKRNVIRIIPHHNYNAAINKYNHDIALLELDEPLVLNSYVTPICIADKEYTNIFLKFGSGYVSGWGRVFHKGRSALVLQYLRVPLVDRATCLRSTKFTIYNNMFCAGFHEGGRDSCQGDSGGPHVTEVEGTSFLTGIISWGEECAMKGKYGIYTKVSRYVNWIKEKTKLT

T1 sequence (P03951 19-387 limits assumed): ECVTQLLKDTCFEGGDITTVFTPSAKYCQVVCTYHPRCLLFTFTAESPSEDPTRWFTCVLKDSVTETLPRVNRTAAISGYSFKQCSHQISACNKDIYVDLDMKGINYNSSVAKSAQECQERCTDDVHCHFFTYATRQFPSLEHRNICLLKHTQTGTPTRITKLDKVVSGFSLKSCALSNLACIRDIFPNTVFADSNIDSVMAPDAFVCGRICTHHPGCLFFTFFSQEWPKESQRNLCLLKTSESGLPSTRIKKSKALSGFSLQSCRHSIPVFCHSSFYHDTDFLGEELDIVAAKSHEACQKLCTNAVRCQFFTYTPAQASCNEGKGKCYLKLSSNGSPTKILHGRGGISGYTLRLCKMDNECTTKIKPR
T1 sequence (P03951 388-625 limits assumed): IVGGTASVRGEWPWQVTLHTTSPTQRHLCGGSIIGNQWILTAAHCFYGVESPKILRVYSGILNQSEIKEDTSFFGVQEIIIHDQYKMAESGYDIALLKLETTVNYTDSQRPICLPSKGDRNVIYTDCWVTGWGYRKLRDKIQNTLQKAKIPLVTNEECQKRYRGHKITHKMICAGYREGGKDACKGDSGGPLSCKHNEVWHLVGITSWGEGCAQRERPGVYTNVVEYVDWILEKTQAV

**Q.** `CC(C)C[C@@H]1NC(=O)[C@@H](C2CCCCC2)NC(=O)[C@H](c2ccccc2)C/C=C/Cc2[nH]c3ccc(Cl)cc3c2CNC1=O` was tested. Which IC50 (Coagulation factor XI [1]) did it give?
**A.** The IC50 was 136 µM.

**Q.** What about the inhibition (Prothrombin [2]) of the same compound?
**A.** The inhibition was “inactive”.

**Q.** What about the IC50 [3] of the same compound?
**A.** The IC50 was 145 µM.

**Q.** And the Kic [3]?
**A.** The Kic was 116 µM.

**Q.** What about the IC50 (Trypsin) of the same compound?
**A.** The IC50 was 0.26 µM.

**Q.** What about the Kic (Trypsin) of the same compound?
**A.** Its Kic is 0.031 µM.

**Q.** With `CC(C)C[C@@H]1NC(=O)[C@@H](C2CCCCC2)NS(=O)(=O)CCCCCc2[nH]c3ccc(Cl)cc3c2CNC1=O` as the compound, how does the IC50 (Coagulation factor XI [1]) read?
**A.** Its IC50 is 176 µM.

**Q.** What about the Kic (Coagulation factor XI [1]) of the same compound?
**A.** The Kic was 87.9 µM.

**Q.** And the inhibition (Prothrombin [2])?
**A.** The inhibition was “inactive”.

**Q.** What about the inhibition [4] of the same compound?
**A.** The inhibition was “inactive”.

**Q.** And the IC50 (Trypsin)?
**A.** The IC50 was 2.43 µM.

**Q.** And the Kic (Trypsin)?
**A.** Its Kic is 0.296 µM.

**Q.** Which IC50 (Coagulation factor XI [1]) does the source give for `C=CCCC(=O)N[C@@H](C(=O)N[C@@H](CC(C)C)C(=O)NCc1c(CC=C)[nH]c2ccc(Cl)cc12)C1CCCCC1` here?
**A.** The IC50 was 103 µM.

**Q.** What about the Kic (Coagulation factor XI [1]) of the same compound?
**A.** Its Kic is 51.6 µM.

**Q.** And the inhibition (Prothrombin [2])?
**A.** The inhibition was “inactive”.

**Q.** And the IC50 [3]?
**A.** Its IC50 is 284 µM.

**Q.** And the Kic [3]?
**A.** Its Kic is 227 µM.

**Q.** What about the IC50 (Trypsin) of the same compound?
**A.** The IC50 was 2.17 µM.

**Q.** What about the Kic (Trypsin) of the same compound?
**A.** The Kic was 0.264 µM.

**Q.** How did the IC50 (Prothrombin [5]) turn out when `CO[C@H](COS(=O)(=O)[O-])C(=O)N[C@@H](C(=O)N1[C@H](C(=O)NCCC2=CC[N+](=C(N)N)C2)C[C@@H]2C[C@H](O)[C@@H](O)C[C@@H]21)[C@H](Cl)C(C)C` [CHLORODYSINOSIN A] was run?
**A.** Its IC50 is 0.0057 µM.

**Q.** Which results are given for `CC(C)C[C@@H]1NC(=O)[C@@H](C2CCCCC2)NC(=O)[C@H](c2ccccc2)CCCCc2[nH]c3ccc(Cl)cc3c2CNC1=O`?
**A.** inhibition (Coagulation factor XI [6]): inactive; inhibition (Prothrombin [2]): inactive; inhibition [4]: inactive; IC50 (Trypsin): 2.31 µM; Kic (Trypsin): 0.281 µM

**Q.** How did the IC50 (Coagulation factor XI [1]) turn out when `CC(C)C[C@@H]1NC(=O)[C@@H](C2CCCCC2)NS(=O)(=O)CC/C=C/Cc2[nH]c3ccc(Cl)cc3c2CNC1=O` was run?
**A.** Its IC50 is 768 µM.

**Q.** What about the Kic (Coagulation factor XI [1]) of the same compound?
**A.** Its Kic is 384 µM.

**Q.** And the IC50 (Prothrombin [5])?
**A.** Its IC50 is 67.9 µM.

**Q.** What about the Kic (Prothrombin [5]) of the same compound?
**A.** The Kic was 10.6 µM.

**Q.** What about the inhibition [4] of the same compound?
**A.** The inhibition was “inactive”.

**Q.** What about the IC50 (Trypsin) of the same compound?
**A.** Its IC50 is 2.69 µM.

**Q.** What about the Kic (Trypsin) of the same compound?
**A.** The Kic was 0.328 µM.

**Q.** `O=C1Cn2c(Cl)cnc(c2=O)N[C@@H](Cc2ccccc2)CNCCCNCCc2ccc(Cl)cc2CN1` was tested. Which Ki (Prothrombin [5]) did it give?
**A.** Its Ki is 0.09 nM.

**Q.** With `CC(C)C[C@@H]1NC(=O)[C@@H](C2CCCCC2)NC(=O)CC/C=C/Cc2[nH]c3ccc(Cl)cc3c2CNC1=O` as the compound, how does the inhibition [7] read?
**A.** Its inhibition is “inactive”.

**Q.** With `C=CCc1[nH]c2ccc(Cl)cc2c1CNC(=O)[C@H](CC(C)C)NC(=O)[C@H](NC(=O)[C@@H](CC=C)c1ccccc1)C1CCCCC1` as the compound, how does the IC50 (Coagulation factor XI [1]) read?
**A.** Its IC50 is 146 µM.

**Q.** And the Kic (Coagulation factor XI [1])?
**A.** The Kic was 73 µM.

**Q.** And the inhibition (Prothrombin [2])?
**A.** The inhibition was “inactive”.

**Q.** What about the IC50 [3] of the same compound?
**A.** Its IC50 is 103 µM.

**Q.** And the Kic [3]?
**A.** The Kic was 82.8 µM.

**Q.** What about the IC50 (Trypsin) of the same compound?
**A.** The IC50 was 0.16 µM.

**Q.** And the Kic (Trypsin)?
**A.** The Kic was 0.02 µM.

**Q.** `CCCCCC(=O)NCC(=O)N[C@H](C(=O)N[C@@H]1C(=O)N[C@@H](CCC(N)=O)C(=O)N[C@H]2CC[C@@H](O)N(C2=O)[C@@H](Cc2ccccc2)C(=O)N(C)[C@@H](Cc2c[nH]c3ccccc23)C(=O)N[C@@H](C(C)C)C(=O)O[C@@H]1C)[C@@H](C)O` [MICROPEPTIN 103] was tested. Which IC50 (Prothrombin [5]) did it give?
**A.** Its IC50 is 8.7 µM.

**Q.** `C=CCCS(=O)(=O)N[C@@H](C(=O)N[C@@H](CC(C)C)C(=O)NCc1c(CC=C)[nH]c2ccc(Cl)cc12)C1CCCCC1` was tested. Which inhibition (Coagulation factor XI [6]) did it give?
**A.** Its inhibition is “inactive”.

**Q.** What about the inhibition (Prothrombin [2]) of the same compound?
**A.** Its inhibition is “inactive”.

**Q.** What about the inhibition [4] of the same compound?
**A.** Its inhibition is “inactive”.

**Q.** And the IC50 (Trypsin)?
**A.** Its IC50 is 1.16 µM.

**Q.** And the Kic (Trypsin)?
**A.** Its Kic is 0.142 µM.

**Q.** `NC(N)=NCCC[C@@H]1NC(=O)[C@@H]2CCCN2C(=O)[C@@H](NC=O)CNC(=O)/C=C/[C@H](Cc2ccc(O)cc2)NC(=O)[C@@H](Cc2ccccc2)NC(=O)C1=O` [CYCLOTHEONAMIDE A] was tested. Which IC50 (Prothrombin [5]) did it give?
**A.** Its IC50 is 0.0015 µM.

**Q.** With `CC(C)C[C@@H]1NC(=O)[C@@H](C2CCCCC2)NC(=O)CCCCCc2[nH]c3ccc(Cl)cc3c2CNC1=O` as the compound, how does the inhibition (Coagulation factor XI [6]) read?
**A.** Its inhibition is “inactive”.

**Q.** What about the IC50 (Prothrombin [5]) of the same compound?
**A.** Its IC50 is 10.6 µM.

**Q.** And the Kic (Prothrombin [5])?
**A.** Its Kic is 1.7 µM.

**Q.** What about the IC50 [3] of the same compound?
**A.** Its IC50 is 395 µM.

**Q.** What about the Kic [3] of the same compound?
**A.** The Kic was 316 µM.

**Q.** And the IC50 (Trypsin)?
**A.** The IC50 was 10 µM.

**Q.** And the Kic (Trypsin)?
**A.** Its Kic is 1.22 µM.
